Source: patent publication US4459290A, “C-23-Modified derivatives of OMT, pharmaceutical compositions and method of use” (priority 1982, dated 1984)
≈ marks a conversion by molar mass, not a printed value. Like-named read-outs stand apart in the source and are kept apart here.

Tests used:
these strains = assay: Activity against the strains of Table VI, agar-dilution; format: cell-based; conditions: at the levels tested
Method: (§1) Especially noteworthy is the improved activity against gram-negative bacteria for several derivatives when compared to the activity of OMT. […] The MIC's in Tables V and VI were determined by standard agar-dilution assays. The MIC's in Table VII were obtained using a conventional broth-dilution microtiter test.

[1] = test system: Pasteurella multocida 40G; assay: MIC, broth-dilution microtiter test (Table VII); format: cell-based; conditions: Pasteurella multocida; P. multocida 40G; broth-dilution microtiter; read-out: MIC
Method: as §1

Mycoplasma synoviae = assay: MIC, broth-dilution microtiter test (Table VII); format: cell-based; conditions: Mycoplasmopsis synoviae
Method: as §1

[2] = test system: Pasteurella hemolytica 23C; assay: MIC, broth-dilution microtiter test (Table VII); format: cell-based; conditions: Pasteurella, P. hemolytica 23C, read-out: MIC
Method: as §1

[3] = test system: Pasteurella hemolytica 22C; assay: MIC, broth-dilution microtiter test (Table VII); format: cell-based; conditions: Pasteurella, P. hemolytica 22C, read-out: MIC
Method: as §1

[4] = test system: Pasteurella multocida 60A; assay: MIC, broth-dilution microtiter test (Table VII); format: cell-based; conditions: Pasteurella multocida; P. multocida 60A, avian isolate; broth-dilution microtiter; read-out: MIC
Method: as §1

Streptococcus sp. 80 = assay: MIC, broth-dilution microtiter test (Table VII); format: cell-based; conditions: Streptococcus sp. 80; broth-dilution microtiter; read-out: MIC
Method: as §1

[5] = test system: Pasteurella multocida 17E; assay: MIC, broth-dilution microtiter test (Table VII); format: cell-based; conditions: Pasteurella multocida; P. multocida 17E, bovine isolate; broth-dilution microtiter; read-out: MIC
Method: as §1

Mycoplasma gallisepticum = assay: MIC, broth-dilution microtiter test (Table VII); format: cell-based; conditions: Mycoplasmoides gallisepticum
Method: as §1

[6] = test system: Pasteurella multocida 22A; assay: MIC, broth-dilution microtiter test (Table VII); format: cell-based; conditions: Pasteurella multocida; P. multocida 22A; broth-dilution microtiter; read-out: MIC
Method: as §1

Mycoplasma hyorhinis = assay: MIC, broth-dilution microtiter test (Table VII); format: cell-based
Method: as §1

[7] = test system: Pasteurella multocida 68C; assay: MIC, broth-dilution microtiter test (Table VII); format: cell-based; conditions: Pasteurella multocida; P. multocida 68C; broth-dilution microtiter; read-out: MIC
Method: as §1

Staphylococcus aureus = assay: MIC, broth-dilution microtiter test (Table VII); format: cell-based; conditions: Staphylococcus aureus
Method: as §1

[8] = test system: Pasteurella hemolytica 41D; assay: MIC, broth-dilution microtiter test (Table VII); format: cell-based; conditions: Pasteurella, P. hemolytica 41D, read-out: MIC
Method: as §1

[9] = test system: Streptococcus pyogenes C203; assay: ED50 in mice experimentally infected with S. pyogenes C203 (Table VIII); format: in vivo
Method: The C-23 modified derivatives of OMT of this invention have shown in vivo antimicrobial activity against experimental infections. When two doses of test compound were administered to mice experimentally infected with a gram-positive bacterium, S. pyogenes C203, the activity observed was measured as an ED50 value [effective dose in mg/kg to protect 50% of the test animals: see Warren Wick, et al., J. Bacteriol. 81, 233-235 (1961)].

[10] = test system: Haemophilus influenzae Holt; assay: MIC, standard agar-dilution assay (Table V); format: cell-based; conditions: Haemophilus influenzae
Method: (§2) The MIC's in Tables V and VI were determined by standard agar-dilution assays. The MIC's in Table VII were obtained using a conventional broth-dilution microtiter test.

[11] = test system: Streptococcus pyogenes C203; assay: MIC, standard agar-dilution assay (Table V); format: cell-based; conditions: Streptococcus pyogenes, C203
Method: as §2

[12] = test system: Haemophilus influenzae R252; assay: MIC, standard agar-dilution assay (Table V); format: cell-based; conditions: Haemophilus influenzae, R252
Method: as §2

Escherichia coli TEM = assay: MIC, standard agar-dilution assay (Table V); format: cell-based; conditions: Escherichia coli; E. coli TEM; agar dilution; read-out: MIC
Method: as §2

[13] = test system: Staphylococcus aureus X1.1; assay: MIC, standard agar-dilution assay (Table V); format: cell-based; conditions: Staphylococcus aureus, X1.1
Method: as §1

Streptococcus Group 9960 = assay: MIC, standard agar-dilution assay (Table V); format: cell-based; conditions: GROUP9960
Method: as §1

Escherichia coli N10 = assay: MIC, standard agar-dilution assay (Table V); format: cell-based; conditions: Escherichia coli; E. coli N10; agar dilution; read-out: MIC
Method: as §1

Escherichia coli EC14 = assay: MIC, standard agar-dilution assay (Table V); format: cell-based; conditions: Escherichia coli; E. coli EC14; agar dilution; read-out: MIC
Method: as §1

[14] = test system: Staphylococcus aureus V41; assay: MIC, standard agar-dilution assay (Table V); format: cell-based; conditions: Staphylococcus aureus, V41
Method: as §1

[15] = test system: Staphylococcus epidermidis EPI2; assay: MIC, standard agar-dilution assay (Table V); format: cell-based; conditions: Staphylococcus epidermidis; S. epidermidis EPI2; agar dilution; read-out: MIC
Method: as §1

[16] = test system: Staphylococcus epidermidis EPI1; assay: MIC, standard agar-dilution assay (Table V); format: cell-based; conditions: Staphylococcus epidermidis; S. epidermidis EPI1; agar dilution; read-out: MIC
Method: as §1

[17] = test system: Klebsiella pneumoniae X26; assay: MIC, standard agar-dilution assay (Table V); format: cell-based; conditions: Klebsiella pneumoniae, X26
Method: as §1

[18] = test system: Streptococcus Group D X66; assay: MIC, standard agar-dilution assay (Table V); format: cell-based
Method: as §1

[19] = test system: Staphylococcus aureus S13E; assay: MIC, standard agar-dilution assay (Table V); format: cell-based; conditions: Staphylococcus aureus, S13E
Method: as §1

[20] = test system: Klebsiella pneumoniae KAE; assay: MIC, standard agar-dilution assay (Table V); format: cell-based; conditions: Klebsiella pneumoniae; K. pneumoniae KAE; agar dilution; read-out: MIC
Method: as §1

[21] = test system: Staphylococcus aureus X400; assay: MIC, standard agar-dilution assay (Table V); format: cell-based; conditions: Staphylococcus aureus, X400
Method: as §1

Shigella sonnei N9 = assay: MIC, standard agar-dilution assay (Table V); format: cell-based
Method: as §1

In the case of C=C1C=CC(=O)C(C)CC(CC=O)C(OC2OC(C)C(O)C(N(C)C)C2O)C(C)C(O)CC(=O)OC(CC)C2CC12 (stereo not drawn) [Compound 16], the “activity against these strains” value (these strains) was “did not show activity”, the MIC [1] was 25 µg/mL (≈ 43.1 µM) and the MIC (Mycoplasma synoviae) was 12.5 µg/mL (≈ 21.6 µM). The MIC [2] was 50 µg/mL (≈ 86.2 µM), the MIC [3] was greater than 50 µg/mL and the MIC [4] was 25 µg/mL (≈ 43.1 µM). The MIC (Streptococcus sp. 80) was 6.25 µg/mL (≈ 10.8 µM), the MIC [5] was 25 µg/mL (≈ 43.1 µM) and the MIC (Mycoplasma gallisepticum) was 1.56 µg/mL (≈ 2.69 µM). It also gave an MIC [6] of 25 µg/mL (≈ 43.1 µM), an MIC (Mycoplasma hyorhinis) of 12.5 µg/mL (≈ 21.6 µM) and an MIC [7] of 25 µg/mL (≈ 43.1 µM). For the same compound, the MIC (Staphylococcus aureus) was 12.5 µg/mL (≈ 21.6 µM), the MIC [8] was 50 µg/mL (≈ 86.2 µM) and the ED50 ([9]; C203, po, read-out: ED50, Oral) was greater than 100 mg/kg. It also gave an ED50 ([9]; C203, sc, read-out: ED50, Subcutaneous) greater than 30 mg/kg, an MIC [10] of 64 µg/mL (≈ 110 µM) and an MIC [11] of 1 µg/mL (≈ 1.72 µM). The MIC [12] was 64 µg/mL (≈ 110 µM), the MIC (Escherichia coli TEM) was greater than 128 µg/mL and the MIC [13] was 4 µg/mL (≈ 6.9 µM). For the same compound, the MIC (Streptococcus Group 9960) was 8 µg/mL (≈ 13.8 µM), the MIC (Escherichia coli N10) was greater than 128 µg/mL and the MIC (Escherichia coli EC14) was greater than 128 µg/mL. For the same compound, the MIC [14] was 4 µg/mL (≈ 6.9 µM), the MIC [15] was 4 µg/mL (≈ 6.9 µM) and the MIC [16] was 4 µg/mL (≈ 6.9 µM). For the same compound, the MIC [17] was 64 µg/mL (≈ 110 µM), the MIC [18] was 4 µg/mL (≈ 6.9 µM) and the MIC [19] was 4 µg/mL (≈ 6.9 µM). It also gave an MIC [20] greater than 128 µg/mL, an MIC [21] of 4 µg/mL (≈ 6.9 µM) and an MIC (Shigella sonnei N9) greater than 128 µg/mL.
